Test results as given in US20150126464A1, “THERAPEUTIC DRUG AND THERAPEUTIC METHOD FOR NEUROLOGICAL DISEASES INCLUDING ALZHEIMER'S DISEASE ASSOCIATED WITH 1,25D3-MARRS” (priority 2013, published 2015).
Counter-ions that a name gives are not always drawn.

Legend:
[1] = system: normal mice; assay: Novel object recognition test in normal mice; assay type: in vivo, mouse; details: normal ddY mice, dioscin 30 μmol/kg/day orally 4 days
Protocol: Diosgenin (Wako Pure Chemical Industries, Ltd., Osaka, Japan) was dissolved in ethanol at 10 times the final concentration to give a stock solution, and the stock solution was diluted in a 5% aqueous solution of glucose to the final concentration. The diosgenin solution was intraperitoneally administered to normal mice (ddY mice, male, 6 weeks old) once a day (10 μmol/kg/day) for 5 or 6 days. One hour after the last administration, each mouse was housed in a separate open-field box made of polyvinyl chloride (33 cm×28 cm; height: 26.5 cm), habituated to the environment for 10 minutes, and used in the test.
Using the mice of Example 8 and Comparative Example 11, a novel object recognition test was performed to evaluate the object recognition memory. Testing was carried out in a dimly illuminated room (100 lux). The test was performed as described in Joyashiki, E. et sl., Int J Neurosci, 121, 181-190, 2011 and Tohda, C. et al., Int J Neurosci, 121, 641-648, 2011, written by the inventors and others, except that the time interval between a training session and a test session was 48 hours. As a locomotion index, the path of each mouse was tracked using a digital camera system. The distance each mouse traveled during the 10 minutes was analyzed as locomotion activity with EthoVision 3.0 (Noldus, Wageningen, The Netherlands).
The diosgenin solution was intraperitoneally administered to normal mice (C57BL/6, male, 8 weeks old) (100 μmol/kg/day) for 14 days. On the day after the 14th administration, the mice were used in the test.
Using the mice of Example 9 and Comparative Example 12, the novel object recognition test was performed. The test was performed under the conditions as described above.
Dioscin in an amount of 30 μmol/kg/day was orally administered to normal mice (ddY mice, male, 6 weeks old) for 4 days. Dioscin (Chromadex, Irvine, Calif., USA) was dissolved in ethanol at 10 times the final concentration to give a stock solution, and the stock solution was diluted in a 5% aqueous solution of glucose to the final concentration. […]

[2] = system: 5XFAD mice; assay: Novel object recognition test in 5XFAD mice (Alzheimer's disease model); assay type: in vivo, mouse
Description: Transgenic mice (5XFAD) as an animal model of AD were obtained from the Jackson Laboratory (Bar Harbor, Me., USA). The 5XFAD mice overexpress human APP695 cDNA having Swedish mutation (K670N and M671L), Florida mutation (I716V) and London mutation (V717I) and human PS1 cDNA (M146L and L286V) under the transcriptional control of the neuron-specific mouse Thy-1 promoter (Oakley, H. et al., J Neurosci, 26, 10129-10140, 2006). They were maintained by crossing hemizygous transgenic mice with B6/SJL F1 breeders.
To investigate the effect of diosgenin on 5XFAD, hemizygous 5XFAD mice (female, 6 to 8 months old) and non-transgenic littermate wild-type mice (female, 6 to 8 months old) were used. These mice were obtained by crossing hemizygous 5XFAD mice and B6/SJL F1 mice. All mice were housed with free access to food and water and were kept in a controlled environment (22±2° C., 50±5% humidity, 12-h light/dark cycle starting at 7:00 am).
Diosgenin was dissolved in dimethyl sulfoxide (DMSO) at 10 times the final concentration to give a stock solution. The stock solution was diluted in physiological saline to the final concentration immediately before treatment. The diosgenin solution was intraperitoneally administered to 5XFAD mice once a day (10 μmol/kg=4.14 mg/kg) for 20 days. On the last day of administration (Day 20), each mouse was housed in a separate open-field box made of polyvinyl chloride (33 cm×[…]; height: 26.5 cm) and habituated to the environment for 10 min. […]
For each mouse of Example 1, Comparative Examples 1 and 2, and Reference Example 1, the path during the 10-minute habituation was tracked using a digital camera system. The distance each mouse traveled during the 10 minutes was analyzed as locomotion activity with EthoVision 3.0 (Noldus, Wageningen, The Netherlands). […] In the present invention, the ratio (%) of the exploration time for the novel object to the total exploration time was calculated as an exploration preferential index. […]

[3] = Body weight during dioscin administration; assay type: in vivo, mouse
Protocol: Dioscin in an amount of 30 μmol/kg/day was orally administered to normal mice (ddY mice, male, 6 weeks old) for 4 days. Dioscin (Chromadex, Irvine, Calif., USA) was dissolved in ethanol at 10 times the final concentration to give a stock solution, and the stock solution was diluted in a 5% aqueous solution of glucose to the final concentration. One hour after the last administration, the mice were used in the test.
Dioscin (30 μmol/kg/day) was orally administered to 5XFAD mice (male, 20 weeks old) for 6 days. One hour after the last administration, the training session was initiated.

[4] = system: rat cortical neurons (SD E18); assay: Measurement of axon density in cortical neurons with or without 1,25D3-MARRS knockdown; details: 1 μM, 4 days, vs vehicle; for density of pNF-H-positive axons per MAP2-positive neuron, control groups: control (no 1,25D3-MARRS knockdown) cortical neurons; for density of pNF-H-positive axons per MAP2-positive neuron, 1,25D3-MARRS knockdown groups: neurons transfected with siRNA for 1,25D3-MARRS (400 nM)
Description: siRNAs were transfected into rat cortical neurons (SD E18) according to the manufacturer's protocol for nucleofection (Lonza, Bazel, Switzerland). […] Two days after the transfection, the cells were fixed and double-immunostained with a monoclonal antibody against a neuron marker MAP2a/2b (1:500, NeoMarker, Fremont, Calif., USA) and Ab099 clone, a specific antibody for 1,25D3-MARRS (1:500, provided by Dr. Nemere).
Twelve to fourteen images were captured. The lengths of the pNF-H-positive axons were measured using an image analyzer Neurocyte (Kurabo), which automatically traces and measures neurite length without measuring the cell bodies. The sum of the axon lengths was divided by the number of MAP2-positive neurons.
1,25D3-MARRS was knocked down using siRNA transfection. […] Two days after the siRNA transfection, denosomin (1 μM) or a vehicle solution was applied to the cells. Further, after 4-day incubation, the cells were double-immunostained for pNF-H and MAP2 to measure the axonal length per neuron.

[5] = system: 5XFAD mice; assay: Immunohistochemistry of brain slices of 5XFAD mice (amyloid plaques, PHF-tau, abnormal axons, presynapses); assay type: in vivo, mouse; details: vs vehicle-treated 5XFAD, diosgenin 10 μmol/kg, memantine hydrochloride 200 μmol/kg/day i.p. 20 days
Protocol: One day after the novel object recognition test, the mice were anesthetized and transcardially perfused with cold physiological saline. The brains were carefully removed from the skull, immediately immersed in 10 to 30% sucrose-PBS and stored at -80° C. The brains were cut in 20-μm successive coronal slices every 100 μm in the parietal area (bregma 1.4-2 mm) sections using a cryostat (C[…], Leica, Heidelberg, Germany). The slices were fixed with 4% paraformaldehyde and stained with a polyclonal antibody against Aβ (1-40/42) (1:300) (Chemicon, Temecula, Calif., USA), a monoclonal antibody against pNF-H (1:500) (Covance, Emeryville, Calif., USA), a monoclonal antibody against synaptophysin (1:500) (Sigma-Aldrich), and a monoclonal antibody against PHF-tau (Thermo Scientific, Rockford, Ill., USA) at 4° C. for 20 hours. […] Three successive brain slices of the frontal cortex and five successive slices of the hippocampus were captured from a mouse for quantification. Extracellular amyloid plaques were determined by the size (greater than 50 μm in width), and the area of amyloid plaques was measured using the image analyzing software ImageJ. The area of the pNF-H-positive abnormal bulb-like axons was measured using ImageJ for every amyloid plaque in the fluorescent images (324 μm×430 μm). The areas of the synaptophysin-positive presynaptic boutons in every amyloid plaque were measured in fluorescent images (324 μm×430 μm) using Image J. The areas of PHF-tau in every amyloid plaque and outer amyloid plaques were measured in fluorescent images (324 μm×430 μm) using ImageJ.

Compound: C[C@@H]1CC[C@@]2(OC1)O[C@H]1C[C@H]3[C@@H]4CC=C5C[C@@H](O[C@@H]6O[C@H](CO)[C@@H](O[C@@H]7O[C@@H](C)[C@H](O)[C@@H](O)[C@H]7O)[C@H](O)[C@H]6O[C@@H]6O[C@@H](C)[C@H](O)[C@@H](O)[C@H]6O)CC[C@]5(C)[C@H]4CC[C@]3(C)[C@H]1[C@@H]2C [dioscin]
- behavior index of exploratory behavior for the novel object [1]: higher than 50%
- behavior index of exploratory behavior for the novel object ([2]; dioscin 30 μmol/kg/day orally 6 days, one hour training-test interval): higher than 50%
- body weight ([3]; 5XFAD mice, dioscin 30 μmol/kg/day orally 6 days): None of the groups showed marked change
- transition of body weight ([3]; normal ddY mice, dioscin 30 μmol/kg/day orally 4 days): no significant difference

Compound: C=C1/C(=C\C=C2/CCC[C@]3(C)[C@@H]([C@H](C)CCCC(C)(C)O)CC[C@@H]23)C[C@@H](O)C[C@@H]1O [DHVD3, 1α,25-dihydroxy vitamin D3, reference compound]
- density of pNF-H-positive axons per MAP2-positive neuron, control groups [4]: significantly increased
- density of pNF-H-positive axons per MAP2-positive neuron, 1,25D3-MARRS knockdown groups [4]: did not show any difference

Compound: C[C@@H]([C@H]1CC[C@H]2[C@@H]3CC=C4C[C@@H](O)CC[C@]4(C)[C@H]3CC[C@]12C)[C@H]1CC=C(CO)C(=O)O1 [denosomin]
- density of pNF-H-positive axons per MAP2-positive neuron, control groups [4]: significantly increased
- density of pNF-H-positive axons per MAP2-positive neuron, 1,25D3-MARRS knockdown groups [4]: almost completely inhibited

Compound: CC12CC3CC(C)(C1)CC(N)(C3)C2 [memantine, Memantine hydrochloride, reference compound]
- area of abnormal axons (swollen axon area) per amyloid plaque in the cerebral cortex [5]: not significantly reduced
- area of abnormal axons (swollen axon area) per amyloid plaque in the hippocampus [5]: inversely significantly increased
- total area of PHF-tau in the cerebral cortex [5]: not significantly different
- total area of PHF-tau in the hippocampus [5]: inversely significantly increased
- total area of amyloid plaques in the hippocampus [5]: significantly reduced in the hippocampus
- novel object preferential index (exploration preferential index), test session ([2]; i.p. once a day for 20 days, diosgenin 10 μmol/kg, memantine hydrochloride 200 μmol/kg/day, 30 min training-test interval): 50%
